Values of other authors as cited in patent US20090016973A1, “Composition and Method for the Prevention of Oral Disease” (MICROPURE, INC., priority 2007, published 2009).

Assays:
protein synthesis [1] = conditions: Roller et al., 1986
dehydrogenase enzymes = conditions: within the first 5 seconds of reaction; Roller et al., 1986
Escherichia coli = conditions: Berg et al., 1986; leading to cell death
protein synthesis [2] = conditions: Benarde et al., 1967

## [O][Cl+][O-] [chlorine dioxide]
Protein synthesis [1]
  inhibition of protein synthesis: partially inhibited
Dehydrogenase enzymes
  inhibition of total dehydrogenase enzymes: inhibited completely
Escherichia coli
  permeability control of the membrane: impaired
Protein synthesis [2]
  effect on protein synthesis: abrupt inhibition
